Measured values from patent US8889676B2, “3-ureidoisoquinolin-8-yl derivatives” (Actelion Pharmaceuticals Ltd., priority 2011, dated 2014).
≈ marks a conversion by molar mass, not a printed value.

What follows are compounds tested on S. pneumoniae ATCC 49619 (assay: Minimal inhibitory concentration (MIC) by broth microdilution (CLSI M7-A7)). Settings: Streptococcus pneumoniae, ATCC49619; cation-adjusted Mueller Hinton Broth supplemented with 3% (v/v) lysed horse blood; microdilution method.
Format: cell-based, Streptococcus pneumoniae
Procedure, shortened: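 Broth microdilution per CLSI M7-A7 in cation-adjusted Mueller-Hinton broth with 3% (v/v) lysed horse blood for S. pneumoniae. MIC in mg/l.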

Row | SMILES | MIC
1 | C#CCOC(=O)NCc1ccc(-c2cncnc2)c2cc(NC(=O)NCC)ncc12.Cl [Example 140, [3-(3-ethyl-ureido)-5-pyrimidin-5-yl-isoquinolin-8-ylmethyl]-carbamic acid prop-2-ynyl ester hydrochloride] | 1 µg/mL
2 | CCNC(=O)Nc1cc2c(-c3ccncc3C)ccc(CNC(=O)OCCOC)c2cn1 [Example 121, [3-(3-ethyl-ureido)-5-(3-methyl-pyridin-4-yl)-isoquinolin-8-ylmethyl]-carbamic acid 2-methoxy-ethyl ester] | 1 µg/mL (≈ 2.29 µM)
3 | C#CCOC(=O)NCc1ccc(-c2ccc(C(=O)O)cc2)c2cc(NC(=O)NCC)ncc12.Cl [Example 137, 4-[3-(3-ethyl-ureido)-8-(prop-2-ynyloxycarbonylamino-methyl)-isoquinolin-5-yl]-benzoic acid hydrochloride] | 0.25 µg/mL
4 | CCNC(=O)Nc1cc2c(-c3ccncc3)ccc(CNC(=O)CCCN3CCOCC3)c2cn1 [Example 147, N-[3-(3-ethyl-ureido)-5-pyridin-4-yl-isoquinolin-8-ylmethyl]-4-morpholin-4-yl-butyramide] | 4 µg/mL (≈ 8.39 µM)
5 | CCNC(=O)Nc1cc2c(-c3ccncc3)ccc(CNC(=O)C(C)C)c2cn1 [Example 67, N-[3-(3-ethyl-ureido)-5-pyridin-4-yl-isoquinolin-8-ylmethyl]-isobutyramide] | 0.5 µg/mL (≈ 1.28 µM)
6 | CCNC(=O)Nc1cc2c(Cl)ccc(CNC(=O)OCCOC)c2cn1 [Example 111, [5-chloro-3-(3-ethyl-ureido)-isoquinolin-8-ylmethyl]-carbamic acid 2-methoxy-ethyl ester] | 0.5 µg/mL (≈ 1.31 µM)
7 | CCNC(=O)Nc1cc2c(-c3ccnc(CCCO)c3)ccc(CNC(=O)OC)c2cn1 [Example 192, {3-(3-ethyl-ureido)-5-[2-(3-hydroxy-propyl)-pyridin-4-yl]-isoquinolin-8-ylmethyl}-carbamic acid methyl ester] | 2 µg/mL (≈ 4.57 µM)
8 | CCNC(=O)Nc1cc2c(-c3ccncc3)ccc(CNC(=O)OCCCN(C)C)c2cn1.Cl [Example 89, [3-(3-ethyl-ureido)-5-pyridin-4-yl-isoquinolin-8-ylmethyl]-carbamic acid 3-dimethylamino-propyl ester hydrochloride] | 8 µg/mL
9 | CCNC(=O)Nc1cc2c(-c3ccnc(OC)c3)ccc(CNC(=O)OC)c2cn1 [Example 162, [3-(3-ethyl-ureido)-5-(2-methoxy-pyridin-4-yl)-isoquinolin-8-ylmethyl]-carbamic acid methyl ester] | 1 µg/mL (≈ 2.44 µM)
10 | CCNC(=O)Nc1cc2c(-c3ccncc3)ccc(CNC(=O)OCC(N)=O)c2cn1.Cl [Example 96, [3-(3-ethyl-ureido)-5-pyridin-4-yl-isoquinolin-8-ylmethyl]-carbamic acid carbamoylmethyl ester hydrochloride] | 2 µg/mL
11 | CCNC(=O)Nc1cc2c(-c3ccnc(C)c3)ccc(CNC(=O)CCOC)c2cn1 [Example 157, N-[3-(3-ethyl-ureido)-5-(2-methyl-pyridin-4-yl)-isoquinolin-8-ylmethyl]-3-methoxy-propionamide] | 1 µg/mL (≈ 2.37 µM)
12 | CCNC(=O)Nc1cc2c(-c3ccncc3)ccc(CNC(=O)OCCCN3CCCC3=O)c2cn1.Cl [Example 85, [3-(3-ethyl-ureido)-5-pyridin-4-yl-isoquinolin-8-ylmethyl]-carbamic acid 3-(2-oxo-pyrrolidin-1-yl)-propyl ester hydrochloride] | 1 µg/mL
13 | CCNC(=O)Nc1cc2c(-c3ccncc3)ccc(CNC(=O)OCc3cccnc3)c2cn1 [Example 42, [3-(3-ethyl-ureido)-5-pyridin-4-yl-isoquinolin-8-ylmethyl]-carbamic acid pyridin-3-ylmethyl ester] | 0.5 µg/mL (≈ 1.1 µM)
14 | CCNC(=O)Nc1cc2c(-c3ccncc3)ccc(CNC(=O)OCc3cncn3C)c2cn1.Cl [Example 88, [3-(3-ethyl-ureido)-5-pyridin-4-yl-isoquinolin-8-ylmethyl]-carbamic acid 3-methyl-3H-imidazol-4-ylmethyl ester hydrochloride] | 2 µg/mL
